This note sets out measurements from patent US20160229835A1, “NOVEL PYRIDYLOXYACETYL TETRAHYDROISOQUINOLINE COMPOUNDS USEFUL AS NAMPT INHIBITORS” (ELI LILLY AND COMPANY, priority 2013, published 2016).

Each structure is given as a SMILES string.

The test system of one test is H1155 tumor model. As to the kind of experiment: Efficacy in Xenograft Tumor Models, NCI-H1155. In kind it is in vivo. The settings on record: nude mice, 4-day-on and 3-day-off schedule for 17 days. The procedure: (§1) The purpose of this assay is to measure reduction in tumor volume in response to test compound administration. A2780 and NCI-H1155 (NSCLC) cells are grown as described above for IVTI studies. Cells are harvested and injected subcutaneously onto the rear flank of nude mice. When tumors are established (7-21 days after implant), animals are randomized and grouped into control and test groups (7 animals/group). The test compound is formulated in 20% of CAPTISOL® and 25 mM of phosphate buffer, pH 2. Test compound and vehicle (20% of CAPTISOL® and 25 mM of phosphate buffer, pH 2 without compound) are administered by oral gavage. Tumor response is determined by tumor volume measurement (caliper) performed twice a week during the course of treatment and reported as percent of tumor volume of each treatment group divided by tumor volume of the vehicle control group. […] For example, Example 1 in H1155 tumor model, when dosed at 10 mg/kg (twice a day (BID) on a 4-day-on and 3-day-off schedule for 17 days, a T/C of 5.5 (P value<0.001 based on T-test) is achieved; when dosed at 20 mg/kg on the same schedule, a T/C of −81.1 (P value<0.001 based on T-test) is achieved. Example 2 in H1155 tumor model, when dosed at 8 mg/kg (twice a day (BID) on a 4-day-on and 3-day-off schedule for 17 days, a T/C of 5.2 (P value<0.001 based on T-test) is achieved; when dosed at 16 mg/kg on the same schedule, a T/C of −82.7 (P value<0.001 based on T-test) is achieved. Example 1 in A2780 tumor model, when dosed at 10 mg/kg (twice a day (BID) on a 4-day-on and 3-day-off schedule for 17 days, a T/C of 41.7 (P value<0.007 based on T-test) is achieved; when dosed at 20 mg/kg on the same schedule, a T/C of 2.4 (P value<0.001 based on T-test) is achieved.

Test [1] concerns Calu-6 (lung cancer) cells. As to the kind of experiment: Cell Viability Assay, Calu-6. It counts as cell-based. The settings on record: Homo sapiens, 72 hours. Here is the method:
The purpose of this assay is to measure the ability of a compound to reduce viability of different cancer cells dependent on the NAMPT-mediated NAD^+ formation in vitro. HCC1937 (breast cancer) cells are cultured in RPMI-1640 supplemented with 10% FBS. Calu-6 (lung cancer) cells and MCF-7 (breast cancer) cells are cultured in Minimum Essential Medium (MEM) (Gibco11095) supplemented with 1 mM sodium pyruvate (Gibco 11360), 1% Non-Essential Amino Acids Solution (100×; Gibco 11140) and 10% FBS. NCI-H1155 (lung cancer) cells are cultured in Dulbecco's Modified Eagle Medium (DMEM) (Gibco 11965) with 10% FBS. […] Cell viability is analyzed by using an assay kit (CYTOTOX-GLO™ Cytotoxicity Assay kit, Promega) according to the manufacturer's instructions as follows. […] Luminescence is measured using a Wallac Victor3 V 1420 Multilabel Counter (Perkin Elmer), referred to as dead cell luminescence. […] After the plate is incubated at room temperature for 15 minutes, luminescence is measured using the plate reader, referred to as total luminescence. Viable cell luminescence (CPS) is calculated by subtracting the dead cell luminescence from the total luminescence Inhibition of cell viability is calculated based on the equation as follows:
Inhibition (%)=(CPSnegative−CPSsample)/(CPSnegative−CPSpositive)*100 where CPS is the luminescence of viable cells.

The target in a further test is NAMPT (Homo sapiens, UniProt P43490). As to the kind of experiment: NAMPT Biochemical Assay (NMN formation by LC-MS). The following applies: relative IC50; 1.5 nM NAMPT, 2 hours at room temperature; read-out: IC50 (inhibition of NAMPT catalytic activity, NMN formation). The procedure:
The purpose of this assay is to measure the ability of a compound to inhibit NAMPT catalytic activity. Reaction mixtures (25 μL) containing 50 mM HEPES at pH 7.5, 50 mM NaCl, 1 mM DTT, 0.005% TRITON® X-100, 1.5 μM phosphoribosyl-pyrophosphate, 0.5 μM nicotinamide (NAM), 1.5 nM NAMPT, 2.5 mM ATP, 1.25 mM MgCl2, 4% (v/v) DMSO and compounds after a ten-point series dilution from either 1 μM to 50 pM or 0.1 μM to 5 pM (final) are prepared. The reaction mixtures are incubated at room temperature for 2 hours. The reaction is terminated by the addition of ACN (25 μL) containing nicotinamide mononucleotide-d4 (NMN-d4) as an internal standard (final concentration: 5 μM). […] A positive control group (enzyme and DMSO, but no compound) is used to measure minimum inhibition (0%) of NMN formation. Percent inhibition of compound treated groups is calculated relative to the minimum inhibition group. The relative IC50 for each compound is calculated from a dose response study and is the concentration necessary to achieve 50% inhibition at this time point using the above disclosed ranges of 1 μM to 50 pM (final). The data generated from the dose-response studies is fit to a four-parameter logistic equation using ACTIVITYBASE 4.0 Equation 205.

For a further test, the system named is A2780 tumor model. As to the kind of experiment: Efficacy in Xenograft Tumor Models, A2780. In kind it is in vivo. The settings on record: nude mice, 4-day-on and 3-day-off schedule for 17 days. Here is the method:
as §1

Chain of NAMPT (P43490 whole entry): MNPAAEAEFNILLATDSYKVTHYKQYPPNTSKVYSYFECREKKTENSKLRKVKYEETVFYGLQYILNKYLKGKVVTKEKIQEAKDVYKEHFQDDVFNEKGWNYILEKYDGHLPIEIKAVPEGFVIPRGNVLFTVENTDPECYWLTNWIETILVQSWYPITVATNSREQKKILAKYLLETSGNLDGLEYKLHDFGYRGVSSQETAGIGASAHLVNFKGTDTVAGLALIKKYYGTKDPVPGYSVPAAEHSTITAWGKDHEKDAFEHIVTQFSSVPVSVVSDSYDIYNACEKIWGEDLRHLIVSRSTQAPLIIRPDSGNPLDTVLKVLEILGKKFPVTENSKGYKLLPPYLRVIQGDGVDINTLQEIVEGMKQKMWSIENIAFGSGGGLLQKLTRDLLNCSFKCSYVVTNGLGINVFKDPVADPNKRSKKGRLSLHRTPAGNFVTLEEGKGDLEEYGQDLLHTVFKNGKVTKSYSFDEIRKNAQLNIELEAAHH

Consider `COCCS(=O)(=O)Nc1ccc2c(c1)CCN(C(=O)COc1cccnc1)C2` [Example 2, 2-Methoxy-N-[2-[2-(3-pyridyloxy)acetyl]-3,4-dihydro-1H-isoquinolin-6-yl]ethanesulfonamide], for which the “T/C (tumor volume of treatment group divided by vehicle control group)” value in the test with H1155 tumor model (8 mg/kg BID oral) is on record as 5.2%; with H1155 tumor model (16 mg/kg BID oral) it was −82.7%; with A2780 tumor model (8 mg/kg BID oral), 40.5%; in the test on A2780 tumor model (16 mg/kg BID oral) it was 1.5%. Also, the values for the IC50 (in test [1]; on NAMPT) were 121 ± 29 nM and 1.1 nM, respectively.
`CC(C)(O)CS(=O)(=O)Nc1ccc2c(c1)CCN(C(=O)COc1cccnc1)C2` [Example 1, 2-Hydroxy-2-methyl-N-[2-[2-(3-pyridyloxy)acetyl]-3,4-dihydro-1H-isoquinolin-6-yl]propane-1-sulfonamide]: the “T/C (tumor volume of treatment group divided by vehicle control group)” value is reported as 5.5% in the test with H1155 tumor model (10 mg/kg BID oral), −81.1% with H1155 tumor model (20 mg/kg BID oral), 41.7% in the test on A2780 tumor model (10 mg/kg BID oral) and 2.4% in the test with A2780 tumor model (20 mg/kg BID oral). The figures for the IC50 (in test [1]; on NAMPT) were 49 ± 8 nM and 3.1 nM, respectively.
